Patent US8759304B2, “Compositions and methods for increasing telomerase activity” (Telomerase Activation Science, Inc., priority 2003, dated 2014)

Tests used:
[1] = test system: telomerase activity in HEKneoP cells (neonatal keratinocytes); assay: TRAP assay of telomerase activity in HEKneoP cells (neonatal keratinocytes); assay type: cell-based, human; conditions: for MEC (minimum effective concentration producing telomerase activity twice that of DMSO control): 100% greater than DMSO control
[2] = test system: aging adult keratinocytes; assay: Scratch assay (wound healing activity), aging adult keratinocytes; assay type: cell-based; conditions: FIG. 4; for Approx. wound width Day1 test: 0.1 μg/ml (about 0.13 μM) 1
Description: (§1) The compounds of formula I-III can be used to promote healing of wounds, burns, abrasions or other acute or chronic conditions of the epidermis, as discussed further below. As used herein, “wound healing activity as measured in a scratch assay” refers to the activity as measured in keratinocytes or fibroblasts according to the following protocol, and expressed as the value of WH shown in the formula below.
(§2) Cells are plated in flasks (5×10^5 cells per flask) and cultured for two days in a humidified chamber at 5% CO2, 37° C. To create the “wound”, a 2 ml plastic pipette is gently dragged to “scratch” the cell surface. The ideal wound is approximately 2-3 mm wide and 50 mm long (along the long axis of the tissue culture flask). The cells are retreated with medium containing either vehicle (DMSO; control sample) or test compositions at multiple concentrations. A wound area is identified, the flask marked, and the appearance of the cells documented photographically over 3-4 days continued culturing of the cells.
(§3) Amount of wound closure is determined by measuring the width of the wound over time for compound-treated samples relative to vehicle-treated or other control cells. Measurements are made from the photographs taken for each of the samples on days 1 (immediately after scratching), 2, 3, and 4. Percentage of wound healing (also expressed as “wound healing activity”) is calculated by the following formula: WH=100−[100×Wn/W0], where Wn is the width of the wound on day n and W0 is the width of the wound on day one (i.e. immediately after scratching).
(§4) Wound healing activity of invention compounds 1 (astragaloside IV) and 2 (cycloastragenol) was evaluated in aging keratinocytes, via a scratch assay as described above.
(GRN163 is a telomerase inhibitor oligonucleotide that targets the template region of the telomerase RNA component. Specifically, GRN 163 is a 13-mer N3′→P5′ thiophosphoramidate oligonucleotide, described in detail in PCT Pubn. No. WO 01/18015. GRN137227 is a 13-mer N3′→P5′ thiophosphoramidate control oligonucleotide having a mismatched sequence.)

[3] = test system: young neonatal keratinocytes; assay: Scratch assay (wound healing activity), young neonatal keratinocytes; assay type: cell-based; conditions: FIG. 5, 1 at 0.1 μg/ml, 2 at 0.01 μM; for WHtest (wound healing activity): WH=100−[100×Wn/W0], WHcntrl 52.6
Description: as §1, §2, §3, §4

[4] = test system: aging neonatal keratinocytes; assay: Scratch assay (wound closure), aging neonatal keratinocytes; assay type: cell-based; conditions: FIG. 7; compared with 50 ng/mL PDGF
Description: as §1
Cells are plated in flasks (5×10^5 cells per flask) and cultured for two days in a humidified chamber at 5% CO2, 37° C. To create the “wound”, a 2 ml plastic pipette is gently dragged to “scratch” the cell surface. The ideal wound is approximately 2-3 mm wide and 50 mm long (along the long axis of the tissue culture flask). The cells are retreated with medium containing either vehicle (DMSO; control sample) or test compositions at multiple concentrations. […]
Amount of wound closure is determined by measuring the width of the wound over time for compound-treated samples relative to vehicle-treated or other control cells. […] Percentage of wound healing (also expressed as “wound healing activity”) is calculated by the following formula: WH=100−[100×Wn/W0], where Wn is the width of the wound on day n and W0 is the width of the wound on day one (i.e. immediately after scratching). […]

[5] = test system: Salmonella Typhimurium tester strains TA98, TA100, TA1535, TA 1537 and E. coli tester strain WP2 uvrA; assay: Ames test (reverse bacterial mutation); conditions: levels up to 5000 μg/plate
Description: (§5) Studies in support of the invention indicate that the compounds of formula I-III have excellent bioavailability and low toxicity. For example, a representative compound, cycloastragenol (2), was negative for reverse bacterial mutation potential in the Ames test, employing Salmonella Typhimurium tester strains TA98, TA100, TA1535, TA 1537 and E. coli tester strain WP2 uvrA, at levels up to 5000 μg/plate. It was well-tolerated systemically in Sprague-Dawley rats, after single intravenous injections up to 10 mg/kg.

[6] = test system: Sprague-Dawley rats; assay: Systemic tolerance after single intravenous injection in rats; assay type: in vivo; conditions: single intravenous injections up to 10 mg/kg
Description: as §5

[7] = day 1 immediately after scratching

CC(C)(O)[C@@H]1CC[C@](C)([C@H]2[C@@H](O)C[C@@]3(C)[C@@H]4C[C@H](O[C@@H]5O[C@H](CO)[C@@H](O)[C@H](O)[C@H]5O)[C@H]5C(C)(C)[C@@H](O[C@@H]6OC[C@@H](O)[C@H](O)[C@H]6O)CC[C@@]56C[C@@]46CC[C@]23C)O1 [Compound 1, astragaloside IV]
MEC (minimum effective concentration producing telomerase activity twice that of DMSO control) [1]: 0.01 µM
telomerase activity ([1]; at 1.0 μM in DMSO, maximum, decreased at higher concentration up to 10 μM): about 360 % of control
WHtest (wound healing activity) ([2]; 0.1 μg/ml 1, WH=100−[100×Wn/W0], WHcntrl 54.5): 100
Approx. wound width Day1 test [2]: 0 arbitrary units
Approx. wound width Day1 test [2, 7]: 17 arbitrary units
state of scratch wound in treated cells ([2]; 0.1 μg/ml (about 0.13 μM) 1 in DMSO, control still had sizable wound at day 4): confluent at day 4
Approx. wound width Day1 test [3]: 0 arbitrary units
WHtest (wound healing activity) [3]: 100
Approx. wound width Day1 test [3, 7]: 18 arbitrary units
wound closure as percent of control, effectiveness [4]: comparable to that of PDGF

CC(C)(O)[C@@H]1CC[C@](C)([C@H]2[C@@H](O)C[C@@]3(C)[C@@H]4C[C@H](O)[C@H]5C(C)(C)[C@@H](O)CC[C@@]56C[C@@]46CC[C@]23C)O1 [Compound 2, cycloastragenol]
MEC (minimum effective concentration producing telomerase activity twice that of DMSO control) [1]: 0.01 µM
telomerase activity ([1]; at 0.1 μM in DMSO, maximum, decreased with further increases in concentration): about 300 % of control
Approx. wound width Day1 test [3]: 2 arbitrary units
WHtest (wound healing activity) [3]: 90.5
Approx. wound width Day1 test [3, 7]: 21 arbitrary units
reverse bacterial mutation potential [5]: negative
changes in behavior (eating, drinking), gross weight, organ weights, hematology or clinical chemistry ([6]; males or females): No significant dose-dependent changes
systemic tolerance [6]: well-tolerated

CC(C)(O)[C@@H]1CC[C@](C)([C@H]2[C@@H](O)C[C@@]3(C)[C@@H]4C[C@H](O)[C@H]5C(C)(C)[C@@H](O)CC[C@]5(C)C4=CC[C@]23C)O1 [Compound 3, astragenol]
MEC (minimum effective concentration producing telomerase activity twice that of DMSO control) [1]: 0.03 µM

CC1(C)C2=CC[C@@H]3[C@@](C)(CC[C@]4(C)[C@@H]([C@@]5(C)CC[C@@H](C(C)(C)O)O5)[C@@H](O)C[C@@]34C)C2=CCC1O (stereo partly drawn) [Compound 5, 20R,24S-epoxy-3β,16β,25-trihydroxy-9β-methyl-19-norlanost-1,5-diene]
MEC (minimum effective concentration producing telomerase activity twice that of DMSO control) [1]: 0.10 µM

CC(C)(O)[C@@H]1CC[C@](C)([C@H]2[C@@H](O)C[C@@]3(C)[C@@H]4C[C@H](OC5O[C@H](CO)[C@@H](O)[C@H](O)[C@H]5O)[C@H]5C(C)(C)C(O)CCC56C[C@@]46CC[C@]23C)O1 (stereo partly drawn) [Compound 6, cycloastragenol 6-β-D-glucopyranoside]
MEC (minimum effective concentration producing telomerase activity twice that of DMSO control) [1]: 3.2 µM

CC(C)(O)[C@@H]1CC[C@](C)([C@H]2[C@@H](O)C[C@@]3(C)[C@@H]4C[C@H](O)[C@H]5C(C)(C)C(O[C@@H]6OC[C@@H](O)[C@H](O)[C@H]6O)CCC56C[C@@]46CC[C@]23C)O1 (stereo partly drawn) [Compound 7, cycloastragenol 3-β-D-xylopyranoside]
MEC (minimum effective concentration producing telomerase activity twice that of DMSO control) [1]: 3.2 µM

CC(C)=CCC[C@](C)(O)[C@H]1CC[C@]2(C)[C@@H]1[C@H](O)C[C@@H]1[C@@]3(C)CC[C@H](O)C(C)(C)[C@@H]3[C@@H](O[C@@H]3O[C@H](CO)[C@@H](O)[C@H](O)[C@H]3O)C[C@]12C [Compound 8, ginsenoside RH1]
MEC (minimum effective concentration producing telomerase activity twice that of DMSO control) [1]: 10 µM

EGF: epidermal growth factor
telomerase activity ([1]; cells treated with 10 nM EGF): about 200%

astragaloside IV 16-one [Compound 4]
MEC (minimum effective concentration producing telomerase activity twice that of DMSO control) [1]: 0.03 µM
